Literature values as cited in patent publication US20200046722A1, “METHOD AND COMPOSITION FOR TREATING EATING DISORDERS” (India Globalization Capital, Inc., priority 2017, published 2020).

Legend:
[1] = test system: patients with cancer related anorexia-cachexia syndrome; settings: at the dosage administered
cats = settings: versus placebo

SMILES	appetite versus placebo [1]	patient's quality of life versus placebo [1]	appetite in comparison with placebo (cats)	food ingested in comparison with placebo (cats)
CCCCCc1cc(O)c2c(c1)OC(C)(C)[C@@H]1CCC(C)=C[C@@H]21 [Delta-9-tetrahydrocannabinol (THC), Delta-9-tetrahydrocannabinol]	no difference	no difference	–	–
CN1CCN2c3ncccc3Cc3ccccc3C2C1 (stereo not drawn) [mirtazapine, 1,2,3,4,10,14b-hexahydro-2-methylpyrazino[2,1-α]pyrido[2,3-c]benzazepine]	–	–	greater appetite	ingested significantly more food
